We go through two compounds from publication PMC7830597, “Derivatives of Tenuazonic Acid as Potential New Multi-Target Anti-Alzheimer’s Disease Agents” (Biomolecules, 2021).

Experiment [1] is described as follows: Radical scavenging activity, DPPH method. To be noted: DPPH assay; mean ± SEM of 3 independent experiments. The protocol:
Therefore, they were assayed for radical scavenging activity using the DPPH method.
The final volume of the assay was 3.5 mL, corrected with MeOH to obtain different concentrations of our compound in each assay. The control solution was composed of MeOH and DPPH [14]. After 30 min, at RT, protected from light, the absorbance was measured at 517 nm (Perkin Elmer Lambda 35 spectrophotometer equipped with a temperature programmer PTP 1þ1 Peltier System, using thermostated (T¼25.0 ± 0.1 °C) 1 cm path length cells), against a blank solution (MeOH). The assays were performed in triplicate, in which the EC50 was obtained through the graphical representation of the %AA vs. the inhibitor concentration.
On the technique in general: DPPH is a stable violet radical that fades when it is reduced.

The target in experiment [2] is AChE of electroforus electricus (electric eel) (Electrophorus electricus, UniProt O42275). In words: biochemical. To be noted: AChE from electric eel; mean of three independent experiments ± SEM; read-out: eeAChEi IC50. The protocol: All new racemic compounds were tested as acetylcholinesterase inhibitors via an in vitro assay, following a modification of Ellman’s method in three independent experiments, using tacrine as a reference compound. […] Enzyme inhibition assays were performed using an adaptation of Ellman’s method. The readings were made in a spectrophotometer Perkin-Elmer Lambda 35 UV-Vis. Enzyme activity is measured by following the increase in yellow color produced from thiocholine when it reacts with dithiobisnitrobenzoate ion (DTNB). DTNB solution was obtained dissolving the reagent in HEPES buffer with salts, namely NaCl (50 mM) and MgCl2 (20 mM), obtaining a 3 mM solution. The enzyme AChE of electroforus electricus (electric eel) stock (500 U) was dissolved in TRIS 50 mM, pH 8.0, being posteriorly diluted to assay concentrations (5 U), obtaining an aliquot of 1 mL. The enzyme substrate used was acetylthiocholine iodide (AThCh, 16 mM), which was prepared with deionized water. The compounds tested were diluted in MeOH or DMSO (1 mg/mL, 2–7 × 10^−3 M), with further dilution, and five different concentrations were used for each compound, obtaining different percentages of AChE inhibition. The assay consists in the addition of HEPES (50 mM, pH = 8), inhibitor, AChE and MeOH in a 1 mL cuvette. The mixture was left to incubate for 15 min and, after that, AThCh and DTNB were added. The enzymatic reaction was followed through the measurements of absorbencies at 405 nm (Perkin Elmer Lambda 35 spectrophotometer equipped with a temperature programmer PTP 1þ1 Peltier System, using thermostated (T = 25.0 ± 0.1 °C) 1 cm path length cells) during 5 min. A blank solution containing all the components except the enzyme, that was substituted for equal volume of HEPES, was used. A control reaction was used using MeOH instead of the new compounds and was considered the reaction corresponding to 100% enzymatic activity. Each assay was performed in quintupled.

The next experiment concerns the target T1, Aβ1-42 (Homo sapiens, UniProt P05067).
T1 construct: Amyloid β peptide (Aβ1-42) was purchased from GeneCust as a lyophilised powder; purchased GeneCust
In words: biochemical. To be noted: Aβ1-42; inhibitor 40 µM; SEM < 10%; read-out: Inhib. Aβ Aggreg. Self-Induced. The protocol:
The anti-amyloidogenic activity of all the compounds was also evaluated in vitro, in the absence and in presence of Cu(II), by measuring the fluorescence emission of Thioflavin T (ThT).
The spectrofluorimetric method, based on the fluorescence emission of thioflavin T (ThT), was used to study the Aβ1-42 aggregation inhibition. Firstly, Aβ1-42 was dissolved in HFIP (1,1,1,3,3,3-Hexafluoro-2-propanol) and kept overnight at room temperature in order to obtain a dry film. […] The ligand solutions were prepared with MeOH (1mg/mL) and further with phosphate buffer. […] As a control, a solution of 30 μL of phosphate buffer and 30 μL of Aβ1-42 was used to observe the aggregation without any inhibition, while the ligand assay solutions were composed of 20 μL of phosphate buffer, 30 μL of Aβ1-42 and 10 μL of ligand. The Cu-induced aggregation studies were similarly conducted, adding 10 μL of CuCl2 to induce the fibril aggregation. Each experiment was composed of an assay and a blank sample, where the blank sample lacks Aβ1-42, to monitor the effect of the compounds on the fluorescence emission. The samples were left to incubate in a CERTOMAT WR water bath for 24 h at 37 °C with shaking. After 24 h, a Glycine-NaOH buffer (pH = 8.5) containing ThT were added to each sample in a microplate. The fluorescence signal was monitored at 446 nm (λexc) and 486 nm (λem) with a Varian Cary Eclipse fluorimeter. Amyloid β peptide (Aβ1-42) was purchased from GeneCust as a lyophilised powder and stored at −20 °C [12, 13, 14].

Chain of AChE of electroforus electricus (electric eel) (O42275 24-633): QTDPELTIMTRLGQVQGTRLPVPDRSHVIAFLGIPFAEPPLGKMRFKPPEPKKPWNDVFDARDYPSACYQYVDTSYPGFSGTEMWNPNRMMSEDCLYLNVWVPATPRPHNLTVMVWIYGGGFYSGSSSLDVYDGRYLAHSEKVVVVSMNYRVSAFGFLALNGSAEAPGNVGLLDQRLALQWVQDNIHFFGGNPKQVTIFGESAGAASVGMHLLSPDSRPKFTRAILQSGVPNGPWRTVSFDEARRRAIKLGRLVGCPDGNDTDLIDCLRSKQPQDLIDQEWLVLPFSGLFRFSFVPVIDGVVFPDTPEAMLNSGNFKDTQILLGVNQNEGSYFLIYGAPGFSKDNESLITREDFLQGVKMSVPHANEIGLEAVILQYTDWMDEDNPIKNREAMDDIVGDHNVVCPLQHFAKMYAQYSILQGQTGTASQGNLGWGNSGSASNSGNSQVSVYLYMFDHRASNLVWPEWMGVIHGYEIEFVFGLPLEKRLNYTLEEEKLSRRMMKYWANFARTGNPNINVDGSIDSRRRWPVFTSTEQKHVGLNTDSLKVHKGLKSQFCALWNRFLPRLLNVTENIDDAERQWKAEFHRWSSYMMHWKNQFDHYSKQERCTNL
T1 sequence (P05067 672-713 limits assumed): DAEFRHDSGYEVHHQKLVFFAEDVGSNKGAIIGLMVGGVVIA

As usually defined, the IC50 is the midpoint of a concentration-inhibition curve. On to `CCOC(=O)C1=C(O)C(C(C)C)NC1=O` (stereo not drawn) [Compound 1, Ethyl 4-hydroxy-5-isopropyl-2-oxo-2,5-dihydro-1H-pyrrole-3-carboxylate], for which the “Antioxidant Activity EC50” value in experiment [1] was 10.8 ± 0.2 µmol/µmol of DPPH. Besides, the IC50 in experiment [2] came out at 42 ± 3 µM. In addition, on Aβ1-42, the inhibition at 40 µM came out at 32.9%.

Consider `CCOC(=O)C1=C(O)C(Cc2ccccc2)NC1=O` (stereo not drawn) [Compound 2, Ethyl 5-benzyl-4-hydroxy-2-oxo-2,5-dihydro-1H-pyrrole-3-carboxylate], for which, in experiment [1], the “Antioxidant Activity EC50” value was 6.3 ± 0.1 µmol/µmol of DPPH. In addition, the IC50 in experiment [2] was determined as 57 ± 4 µM. Also, the inhibition at 40 µM on Aβ1-42 is 12.4%.
